These results are taken from patent US10155985B2, “Evaluation of eosinophilic esophagitis” (CHILDREN'S HOSPITAL MEDICAL CENTER, priority 2004, dated 2018).

This data set concerns EE transcriptome. Put plainly: Genome-wide microarray transcript profiling of esophageal biopsies, EE patients vs normal individuals (EE transcriptome). The note with it: Affymetrix Human Genome U133 plus 2, p<0.01. How it is done: Esophageal tissue obtained from patients previously diagnosed with EE was analyzed. Diagnosis was based on analysis of excised tissue from endoscopic biopsy. Tissues from patients with EE, as well as patients not having EE (controls) were subjected to genome-wide microarray transcript profiling (Affymetrix GeneChip). All work was performed at the Core facility at Children's Hospital Medical Center (Cincinnati Ohio).
Briefly, RNA quality was first assessed using the Agilent bioanaiyzer (Agilent Technologies, Palo Alto Calif.). Only mRNA having a ratio of 28S/18S between 1.3 and 2 were subsequently used. RNA was converted to cDNA with Superscript choice for cDNA synthesis (Invitrogen, Carlsbad Calif.) and subsequently converted to biotinylated cRNA with Enzo High Yield RNA Transcript labeling kit (Enzo Diagnostics, Farmingdale N.Y.). After hybridization to the GeneChip (Affymetrix, Santa Clara Calif.), the chips were automatically washed and stained with streptavidin-phycoerythrin using a fluidics system. The chips were scanned with a Hewlett Packard GeneArray Scanner. Over 30,000 unique genes were screened.
Levels of gene transcripts were determined from data image files, using algorithms in the Microarray Analysis Suite software (Affymetrix). Levels from chip to chip were compared by global scaling. Each gene was typically represented by a probe set of 16 to 20 probe pairs. Each probe pair consisted of a perfect match oligonucleotide and a mismatch oligonucleotide that contained a one base mismatch at a central position. Two measures of gene expression were used, absolute call and average difference. Absolute call is a qualitative measure in which each gene is assigned a call of present, marginal or absent, based on the hybridization of the RNA to the probe set. Average difference is a quantitative measure of the level of gene expression, calculated by taking the difference between […] of every probe pair and averaging the differences over the entire probe set. Data were normalized and an EE transcriptome gene list was created with results having p<0.01 (Welch t-test with or without false rate discovery) and ≥1.5-fold change.
For evaluation of EE using clinical and/or physical assessment, biopsy tissues (obtained from the distal esophagus during routine endoscopy) were submerged in formalin for routine pathological analysis with hematoxylin and eosin staining. Diagnosis was established based on the maximum eosinophil count per high power field (hpf) and basal layer expansion according to method known in the art (e.g., established criteria in Rothenberg et al., Pathogenesis and clinical features of eosinophilic esophagitis. J Allergy Clin Immunol 108 (2001) 891; Attwood et al., Esophageal eosinophilia with dysphagia. A distinct clinicopathologic syndrome. Dig Dis Sci 38 (1993)109; Fox et al., Eosinophilic esophagitis: its not just kid's stuff. Gastrointest Endosc 56 (2002) 26, each of which is expressly incorporated by reference herein in its entirety. Normal individuals (NL), n=13, served as a control and were defined as having 0 eosinophils/hpf and no basal layer expansion. Individuals with EE (n=76) were defined as having >24 eosinophils/hpf and extensive basal layer hyperplasia (expansion to about >⅓ of epithelium).
The data were analyzed by cluster analysis and ordered (standard correlation (A) and distance (B)) using Genespring software. […] Each column represented a separate individual and each line a gene. RNA from each patient was subjected to chip analysis using Affymetrix Human Genome U133 GeneChip plus 2.

Where [1] appears, read: transcript level in esophageal biopsies of EE patients compared to normal individuals (NL), >1 up-regulated, <1 down-regulated.
[2] abbreviates: transcript level in esophageal biopsies of EE patients (n=76) compared to normal individuals (n=13).

On to ACOX2, for which the “Fold Change” value under setting [1] is given as 0.592.

For SCUBE1, the “Fold Change” value under setting [2] came out at 2.689.

For SLC15A1, the “Fold Change” value under setting [2] is 2.792.

For SCYL2, the “Fold Change” value under setting [1] is listed as 1.507.

SCIN: the “Fold Change” value under setting [2] is recorded as 3.17.

Take SFRP1: the “Fold Change” value under setting [2] worked out at 4.098.

With SEC6L1, the “Fold Change” value under setting [2] is 8.878.

On to SH2D1B, for which the “Fold Change” value under setting [2] is listed as 3.098.

In the case of SIDT1, under setting [2], the “Fold Change” value is recorded as 4.822.

Regarding SIGLEC6, under setting [2], the “Fold Change” value amounted to 3.199.

On to ACSL5, for which the “Fold Change” value under setting [2] came out at 2.745.

For the molecule SDPR, the “Fold Change” value under setting [2] turned out to be 2.293.

SGK: the “Fold Change” value under setting [2] was 3.139.

ADAR: under setting [1], the “Fold Change” value turned out to be 1.509.

As for SECTM1, under setting [2], the “Fold Change” value turned out to be 3.282.

Consider SAMSN1, for which the “Fold Change” value under setting [2] stood at 7.119.

In the case of SF3B3, the “Fold Change” value under setting [1] was 0.655.

Turning to SE57-1, the “Fold Change” value under setting [2] turned out to be 4.055.

For ABHD6, the “Fold Change” value under setting [1] is 0.609.

For the molecule ACADL, under setting [1], the “Fold Change” value was 0.588.

Regarding AADAT, under setting [1], the “Fold Change” value was 0.608.

Take SCUBE2: the “Fold Change” value under setting [2] is recorded as 5.502.

On to SERPINB4, for which the “Fold Change” value under setting [2] is 4.328.

ABCC1: under setting [1], the “Fold Change” value stood at 0.622.

As to SH3BP5, the “Fold Change” value under setting [1] was found to be 0.622.

Consider ADAMTS17, for which the “Fold Change” value under setting [1] was 0.631.

On to ADAM28, for which, under setting [2], the “Fold Change” value was determined as 2.613.

Turning to SEPX1, the “Fold Change” value under setting [2] was determined as 2.611.

For SC5DL, the “Fold Change” value under setting [1] is recorded as 0.6.

Take SH3RF2: the “Fold Change” value under setting [2] is on record as 3.122.

SEC24C: the “Fold Change” value under setting [1] was 0.647.

Regarding 13CDNA73, the “Fold Change” value under setting [1] was 0.632.

Regarding SCEL, the “Fold Change” value under setting [1] is 0.631.

On to SAMD9, for which, under setting [1], the “Fold Change” value amounted to 0.634.

On to SFRS5, for which, under setting [1], the “Fold Change” value stood at 0.666.

Turning to SGPL1, under setting [1], the “Fold Change” value was 0.63.

B1: SEQ_ID_#72 (nucleic acid, listed as Homo sapiens)
DNA: AGCTATTCATTCATTTAATGAATATTTTTAATATCGATGTACATGCCAGATAATGAAGAGGAGGGGTGTTACAGAAGTATACAACAAATTGTATCATTCAGCAATCCTTTATCCTAGTGGGGAAGATGACTATACAGATAATTACAACTTAAGGCCATTTTTTGGATAAGAAACATAAAAGTGGTACAAACAAAAGTTCAAGGAGGCAAAGACCACTTCTTATTCTGGTTATATGGATAGCCTTCATGGAGAAGGCTTCATGACAGTTGGGTTGGGTCTTGAAGATGTCTACAGGTAGAGCCTCAGAAAAAGGAATATGAAACATAGGGAACAGTAGGAGGAGGGCAGCTTTAGTGACTGGCTCGGTTATACTAGAGCATTGGGATTGTAGAGGAGAATCATGATTGATTAAGGCTATATAGGGCAGTTAGGGCCAGATACTGGGGGAATTTGAATATCAGACTGTTATTTGATGAACAGTGGGAGCAGCTGAAGGTTTTTTTTTTTTTTTTAAAAAAAACAACCTTATTAAGGTAGTG
On to B1, for which the “Fold Change” value under setting [2] came out at 4.374.

B2: SEQ_ID_#787 (nucleic acid, listed as Homo sapiens)
DNA: TTTGGTACAGAATGAAACCGTTCTCTTTGAAGAACTGCATGTTTCCCCCAGTCATTTTTGTCCTGGGGGAGTCAAGTGTTTTTACGGACCCTTGAAGCTTGAGGACACTCTGGCATCACCCATTGTTGGGGTGACTTTCTGGTGATTATCAGTGAGCAAACTTCAAGGCCAGCTCCGATTAGGAAAATCTGCCAAGTGTGAGTTTCCTTGGAGCTAGGACTGGGCAGAGACCCCTGGTCCTTGGTCCGTAGGGAAGCTGGGGGATTTGGGGGGTAAGTAATGAGATCATGTCTGCAGAGGCCCCCAGCCTCTTGGAAGAAGATTCCGCTGTAATTTCTTGGAAAAAGCCAACTCCTTCCAGCCCTTTCTGCTCACACCATCTCAGTTTTCCTGGCTGG
On to B2, for which, under setting [1], the “Fold Change” value came to 1.528.

B3: SEQ_ID_#783 (nucleic acid, listed as Homo sapiens)
DNA: TATCACGCACAAATTGCAATTACTTCACACTCACGATAACCCATTAATCTGTGAAGGATTAATCTGTTCATGAAGGCAGGGCCCTCATGATGGAATCACATCTTAAAGCCCCTACGTCTGAGTACTGTTACATTGGGGATTTAGTTTTAATATGATTTTCAGAGCAGAAAAACATTCAAACCATAGCAATATGTATTGAATATCTAGATCATTTCCAAATAAGATATTAATATGATACTGAAACATTTATTGCTGAACATAAATTTAGAACTTACTTTGCCTACCTATTACAGAAGAACAAAAGATATTTGGGCCTATTAAACCTTTCCTCTGCCATTTCCTGTCCTGTGTCATAGGACTAGGAATCGTGTTTCTAGAAGGTATGAAATCGTGTGCTTGCAAACTTGGAAGAAAACAGTTCATGACTGCATACCTTCTAGTTCTCTAGTGTTCACTGGAAATTAAAGACACTAAAAGTTAACAATTCTTATTAATTAATCATATTAATGTAATTGGAATTTCTAGAAATATTAGGGGAAGCAACTTTATACGCAAAGCATAACAGAAAAATAAGGTGTATTTTTTCTTTGAAACCTATGAAATATACTGGCCAGGCACGGTGGCTCATGCTTGTAATCCCAGCACTTTGGGAAGCTGAAGCGGTGGATCACCTGAGCTCAGGAGTCCGAGACCAGCTGGCCACATGTTGAACCATGTCTCTACTAAAATACAAAATTAGCAGTCATGTGCGGTGCTGTACCCCAGTACTCGGAGCTGGGGGGAATCGTGACCGGGTGGGTGCTGACCAAACCTGGCCCAGCGGGAAAGAGACTTTAAAACAATGGACCAAACTGCACAAGCTCTGCCACACTTGTCGAACCCGTGGACGCACAAGAAAAGGGCATCTGGACCTGGAATAACGAAACGACACATCT
Consider B3, for which, under setting [1], the “Fold Change” value was determined as 1.53.

B4: S100P (nucleic acid, listed as Homo sapiens)
DNA: TGAGGCTGCCTTATAAAGCACCAAGAGGCTGCCAGTGGGACATTTTCTCGGCCCTGCCAGCCCCCAGGAGGAAGGTGGGTCTGAATCTAGCACCATGACGGAACTAGAGACAGCCATGGGCATGATCATAGACGTCTTTTCCCGATATTCGGGCAGCGAGGGCAGCACGCAGACCCTGACCAAGGGGGAGCTCAAGGTGCTGATGGAGAAGGAGCTACCAGGCTTCCTGCAGAGTGGAAAAGACAAGGATGCCGTGGATAAATTGCTCAAGGACCTGGACGCCAATGGAGATGCCCAGGTGGACTTCAGTGAGTTCATCGTGTTCGTGGCTGCAATCACGTCTGCCTGTCACAAGTACTTTGAGAAGGCAGGACTCAAATGATGCCCTGGAGATGTCACAGATTCCTGGCAGAGCCATGGTCCCAGGCTTCCCAAAAGTGTTTGTTGGCAATTATTCCCCTAGGCTGAGCCTGCTCATGTACCTCTGATTAATAAATGCTTATGAAATGA
Take B4: the “Fold Change” value under setting [1] is on record as 1.52.

B5: SEQ_ID_#58 (nucleic acid, listed as Homo sapiens)
DNA: ATGAAGGCCAACTACAGCGCAGAGGAGCGCTTTCTCCTGCTGGGTTTCTCCGACTGGCCTTCCCTGCAGCCGGTCCTCTTCGCCCTTGTCCTCCTGTGCTACCTCCTGACCTTGACGGGCAACTCGGCGCTGGTGCTGCTGGCGGTGCGCGACCCGCGCCTGCACACGCCCATGTACTACTTCCTCTGCCACCTGGCCTTGGTAGACGCGGGCTTCACTACTAGCGTGGTGCCGCCGCTGCTGGCCAACCTGCGCGGACCAGCGCTCTGGCTGCCGCGCAGCCACTGCACGGCCCAGCTGTGCGCATCGCTGGCTCTGGGTTCCGCCGAATGCGTCCTCCTGGCGGTGATGGCTCTGGACCGCGCGGCCGCAGTGTGCCGCCCGCTGCGCTATGCGGGGCTCGTCTCCCCGCGCCTATGTCGCACGCTGGCCAGCGCCTCCTGGCTAAGTGGCCTCACCAACTCGGTTGCGCAAACCGCGCTCCTGGCTGAGCGGCCGCTGTGCGCGCCCCGCCTGCTGGACCACTTCATCTGTGAGCTGCCGGCGTTGCTCAAGCTGGCCTGCGGAGGCGACGGAGACACTACCGAGAACCAGATGTTCGCCGCCCGCGTGGTCATCCTGCTGCTGCCGTTTGCCGTCATCCTGGCCTCCTACGGTGCCGTGGCCCGAGCTGTCTGTTGCATGCGGTTCAGCGGAGGCCGGAGGAGGGCGGTGGGCACGTGTGGGTCCCACCTGACAGCCGTCTGCCTGTTCTACGGCTCGGCCATCTACACCTACCTGCAGCCCGCGCAGCGCTACAACCAGGCACGGGGCAAGTTCGTATCGCTCTTCTACACCGTGGTCACACCTGCTCTCAACCCGCTCATCTACACCCTCAGGAATAAGAAAGTGAAGGGGGCAGCGAGGAGGCTGCTGCGGAGTCTGGGGAGAGGCCAGGCTGGGCAGTGA
As to B5, the “Fold Change” value under setting [2] is given as 4.822.

B6: SEQ_ID_#65 (nucleic acid, listed as Homo sapiens)
DNA: B5 DNA
Turning to B6, the “Fold Change” value under setting [2] stood at 4.547.
